Measured values as given in patent US20080207695A1, “Thrombin Inhibiting 2-Oxo-1,2,5,6-Tetrahydropyridine Derivatives” (ASTRAZENECA AB, priority 2005, published 2008).

Experiments:
[1] = Test F: in vitro (liver microsome) stability, human liver microsomes; format: in vitro ADME; settings: liver microsomes from humans, NADPH, 37° C.
Procedure: (§1) Determination of In Vitro (Liver Microsome) Stability
(§2) Liver microsomes are prepared from Sprague-Dawley rats and human liver samples according to internal SOPs. The compounds are incubated at 37° C. at a total microsome protein concentration of 0.5 mg/mL in a 0.1 mol/L potassium phosphate buffer at pH 7.4, in the presence of the cofactor, NADPH (1.0 mmol/L). The initial concentration of compound is 1.0 μmol/L. Samples are taken for analysis at 5 time points, 0, 7, 15, 20 and 30 minutes after the start of the incubation. The enzymatic activity in the collected sample is immediately stopped by adding an equal volume of acetonitrile containing 0.8% formic acid. The concentration of compound remaining in each of the collected samples is determined by means of LC-MS/MS. The elimination rate constant (k) of the thrombin inhibitor is calculated as the slope of the plot of ln[Thrombin inhibitor] against incubation time (minutes). The elimination rate constant is then used to calculate the half-life (T1/2) of the thrombin inhibitor, which is subsequently used to calculate the intrinsic clearance (CLint) of the thrombin inhibitor in liver microsomes as: […]

[2] = Test F: in vitro (liver microsome) stability, rat liver microsomes; format: in vitro ADME, Sprague-Dawley rats; settings: liver microsomes from rats, NADPH, 37° C.
Procedure: as §1, §2

CC(=O)OCc1nc(N)cc(C)c1CNC(=O)CC1=C(C)CCN(NCC(F)(F)c2ccccn2)C1=O [Example 2, (6-Amino-3-{[({1-[(2,2-difluoro-2-pyridin-2-ylethyl)amino]-4-methyl-2-oxo-1,2,5,6-tetrahydropyridin-3-yl}acetyl)amino]methyl}-4-methylpyridin-2-yl)-methyl acetate]
conversion to the corresponding active inhibitor (title compound of Example 1) [1]: converted to the corresponding active inhibitor | conversion to the corresponding active inhibitor (title compound of Example 1) [2]: converted to the corresponding active inhibitor

CC1=C(CC(=O)NCc2c(C)cc(N)nc2COC(=O)c2ccccc2)C(=O)N(NCC(F)(F)c2ccccn2)CC1 [Example 3, (6-Amino-3-{[({1-[(2,2-difluoro-2-pyridin-2-ylethyl)amino]-4-methyl-2-oxo-1,2,5,6-tetrahydropyridin-3-yl}acetyl)amino]methyl}-4-methylpyridin-2-yl)-methyl benzoate]
conversion to the corresponding active inhibitor (title compound of Example 1) [1]: converted to the corresponding active inhibitor | conversion to the corresponding active inhibitor (title compound of Example 1) [2]: converted to the corresponding active inhibitor
